Reference: PubChem BioAssay (NCI)
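Results reflect a 48-hour exposure of cells in 96-well plates to compound at five concentrations. TGI: total growth inhibition.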

Key:
Assay in all cases: NCI anticancer screen, dose series, 48 h
[1] = tested on: PC-3 prostate
[2] = tested on: MDA-N
[3] = tested on: HL-60(TB) leukemia
[4] = tested on: SN12C renal
[5] = tested on: UACC-257 melanoma
[6] = tested on: 786-0 renal
[7] = tested on: T-47D breast
[8] = tested on: SR leukemia
[9] = tested on: EKVX NSCLC
[10] = tested on: CCRF-CEM leukemia
[11] = tested on: NCI-H23 lung
[12] = tested on: SK-OV-3 ovarian
[13] = tested on: SW-620 colon
[14] = tested on: HCT-116 colon
[15] = tested on: SNB-75 CNS
[16] = tested on: OVCAR-5 ovarian
[17] = tested on: UACC-62 melanoma
[18] = tested on: M14 melanoma
[19] = tested on: HCT-15 colon
[20] = tested on: UO-31 renal
[21] = tested on: SK-MEL-5 melanoma
[22] = tested on: SF-268 CNS
[23] = tested on: NCI-H226 lung
[24] = tested on: SF-295 CNS
[25] = tested on: K-562 leukemia
[26] = tested on: MDA-MB-231 breast
[27] = tested on: SF-539 CNS
[28] = tested on: HCC-2998 colon
[29] = tested on: NCI-H460 lung
[30] = tested on: HOP-62 NSCLC
[31] = tested on: IGROV1 ovarian
[32] = tested on: RPMI-8226 leukemia
[33] = tested on: OVCAR-3 ovarian
[34] = tested on: A498 renal
[35] = tested on: KM12 colon
[36] = tested on: RXF 393 renal
[37] = tested on: HS 578T breast
[38] = tested on: COLO 205 colon
[39] = tested on: NCI/ADR-RES ovarian
[40] = tested on: HT29 colon
[41] = tested on: TK-10 renal
[42] = tested on: SK-MEL-28 melanoma
[43] = tested on: ACHN renal
[44] = tested on: SK-MEL-2 melanoma
[45] = tested on: MOLT-4 leukemia
[46] = tested on: LOX IMVI melanoma
[47] = tested on: DU-145 prostate
[48] = tested on: MALME-3M melanoma
[49] = tested on: NCI-H522 lung
[50] = tested on: MDA-MB-435
[51] = tested on: CAKI-1 renal
[52] = tested on: OVCAR-4 ovarian
[53] = tested on: A549 NSCLC
[54] = tested on: SNB-19 CNS
[55] = tested on: OVCAR-8 ovarian
[56] = tested on: U251 CNS
[57] = tested on: MCF7 breast

In the case of COc1cc2nn(-c3ccccc3)nc2c2nonc12, the TGI [1] is reported as > 100 µM, the TGI [2] is reported as > 100 µM and the TGI [3] is reported as > 100 µM. For the same compound, the TGI [4] was > 100 µM, the TGI [5] was > 100 µM and the TGI [6] was > 100 µM. For the same compound, the TGI [7] was > 100 µM, the TGI [8] was > 100 µM and the TGI [9] was > 100 µM. The TGI [10] was > 100 µM, the TGI [11] was > 100 µM and the TGI [12] was > 100 µM. The TGI [13] was > 100 µM, the TGI [14] was > 100 µM and the TGI [15] was > 100 µM. The TGI [16] was > 100 µM, the TGI [17] was > 100 µM and the TGI [18] was > 100 µM. For the same compound, the TGI [19] was > 100 µM, the TGI [20] was > 100 µM and the TGI [21] was > 100 µM. The TGI [22] was > 100 µM, the TGI [23] was > 100 µM and the TGI [24] was > 100 µM. For the same compound, the TGI [25] was > 100 µM, the TGI [26] was > 100 µM and the TGI [27] was > 100 µM. For the same compound, the TGI [28] was > 100 µM, the TGI [29] was > 100 µM and the TGI [30] was > 100 µM. The TGI [31] was > 100 µM, the TGI [32] was > 100 µM and the TGI [33] was > 100 µM. For the same compound, the TGI [34] was > 100 µM, the TGI [35] was > 100 µM and the TGI [36] was > 100 µM. For the same compound, the TGI [37] was > 100 µM, the TGI [38] was > 100 µM and the TGI [39] was > 100 µM. For the same compound, the TGI [40] was > 100 µM, the TGI [41] was > 100 µM and the TGI [42] was > 100 µM. The TGI [43] was > 100 µM, the TGI [44] was > 100 µM and the TGI [45] was > 100 µM. For the same compound, the TGI [46] was > 100 µM, the TGI [47] was > 100 µM and the TGI [48] was > 100 µM. For the same compound, the TGI [49] was > 100 µM, the TGI [50] was > 100 µM and the TGI [51] was > 100 µM. For the same compound, the TGI [52] was > 100 µM, the TGI [53] was > 100 µM and the TGI [54] was > 100 µM.
COC1=CC(=O)c2c(cc(COP(N)(=O)N(CCBr)CCBr)n2C)C1=O (stereo unspecified) gave a TGI [1] of 4.62 µM, a TGI [2] of 2.24 µM and a TGI [3] of 3.64 µM. It also gave a TGI [4] of 1.08 µM, a TGI [5] of 4.44 µM and a TGI [7] of 2.98 µM. It also gave a TGI [8] of 1.6 µM, a TGI [9] of 0.207 µM and a TGI [10] of 0.771 µM. It also gave a TGI [11] of 2.67 µM, a TGI [12] of 1.15 µM and a TGI [13] of 1.48 µM. It also gave a TGI [14] of 0.131 µM, a TGI [15] of 1.19 µM and a TGI [16] of 1.06 µM. The TGI [17] was 1.47 µM, the TGI [18] was 0.633 µM and the TGI [19] was 2.5 µM. It also gave a TGI [20] of 3.66 µM, a TGI [21] of 2.2 µM and a TGI [22] of 1.8 µM. For the same compound, the TGI [23] was 1.17 µM, the TGI [24] was 0.225 µM and the TGI [55] was 1.2 µM. For the same compound, the TGI [25] was > 100 µM, the TGI [26] was 7.1 µM and the TGI [27] was 0.133 µM. It also gave a TGI [29] of 5.38 µM, a TGI [31] of 2.8 µM and a TGI [32] of 1.16 µM. It also gave a TGI [33] of 0.651 µM, a TGI [34] of 2.88 µM and a TGI [56] of 0.859 µM. For the same compound, the TGI [35] was 4.72 µM, the TGI [36] was 1.49 µM and the TGI [38] was 0.144 µM. The TGI [39] was 7.86 µM, the TGI [40] was 1.05 µM and the TGI [41] was 3.43 µM. For the same compound, the TGI [57] was 16.1 µM, the TGI [42] was 3.1 µM and the TGI [43] was 0.0219 µM. For the same compound, the TGI [44] was 3.57 µM, the TGI [45] was > 100 µM and the TGI [46] was 0.121 µM. The TGI [47] was 1.41 µM, the TGI [48] was 1.86 µM and the TGI [49] was 0.188 µM. The TGI [50] was 2.42 µM, the TGI [52] was 10.5 µM and the TGI [53] was 1.71 µM. The TGI [54] was 8.28 µM.
